Consider ten molecules from patent US20080299592A1, “Red-Shifted Luciferase” (priority 2007, published 2008).

Entries after “also recorded” stand apart in the source; their conditions may differ.

Series [1] deals with tetracysteine-tagged protein. The series can be described thus: Binding/labeling of tetracysteine-tagged protein by bis-arsenical dyes (MALDI-MS). As to conditions: for binding to tetracysteine-tagged protein: MALDI-MS, canonical tetracysteine tag.
In a further series the test system is HeLa cells. Put plainly: Intracellular staining of mammalian tissue culture cells (HeLa) with bis-arsenical dyes. The following applies: absence of tetracysteine-tagged proteins and thiol competitors. The class given is cell-based.
The test system of a further series is mice. The following applies: cited from earlier work.
Another series concerns the target tetracysteine tag. The following applies: FlAsH / tetracysteine tag; Adams et al. 2002; read-out: dissociation constant; cited from earlier work.
For series [2], the system named is tetracysteine-tagged firefly luciferase. Put plainly: BRET from tetracysteine-tagged firefly luciferase constructs to ReAsH. The following applies: for BRET: to ReAsH, purified TC-tagged luciferase constructs, Table 1; for efficiency of BRET (apparent): treatment with ReAsH. Format: biochemical. The source says:
Firefly luciferase fusion proteins with an optimized tetracysteine (TC) tag ([…]; SEQ ID NO:1) (Martin et al., Nature Biotechnology, 2005, 23:1308-14) fused onto either the amino (TCLuc1) or carboxy (TCLuc2) terminus of the luciferase protein (Promega's pGL3 (GenBank No. U47295.2)) were cloned and expressed (see list in Table 1). The proteins were expressed in E. Coli as GST fusions, purified by glutathione agarose affinity chromatography, and eluted as the TC-tagged protein by cleavage with PreScission™ protease.
The emission spectrum is sharpened, such that the maximum at 608 nm is actually higher than the 560 nm peak of luciferase (FIG. 3).
To help evaluate the role of distance and orientation on the BRET efficiency, additional N-terminal fusions of the TC tag were constructed (Table 1). […] The best-performing TCLuc1 fusion was cloned into pcDNA3.1 for expression in mammalian tissue culture cells. This construct lacks a C-terminal peroxisomal targeting sequence, and thus the expressed luciferase will localize to the cytoplasm.
(In general: BRET reads energy transfer from a luciferase to a nearby fluorophore.)

Take `O=c1ccc2nc3ccc(O)c([As]4SCCS4)c3oc-2c1[As]1SCCS1` [ReAsH, reference compound]: the “binding to tetracysteine-tagged protein” value in series [1] is “binding”. The intracellular staining entry in the series with HeLa cells is listed as “bright intracellular staining”.

The term LD50 denotes the dose expected to kill half of the subjects tested. Take `Nc1ccc([As](=O)(O)O)cc1` [arsanilic acid]: the LD50 with mice (mice) is 248 mg/kg.

In the case of `CN(Cc1cnc2nc(N)nc(N)c2n1)c1ccc(C(=O)N[C@@H](CCC(=O)O)C(=O)O)cc1` [methotrexate], the “LD50 relative to melarsonyl” value in the series with mice (mouse, in vivo) is on record as “two-fold lower LD50 than melarsonyl”.

As for FlAsH [reference compound], in series [1], the “binding to tetracysteine-tagged protein” value was “binding”. Also, the Kd on tetracysteine tag was roughly 4 pM. Moreover, the intracellular staining result in the series on HeLa cells is “bright intracellular staining”.

Turning to bis-arsenical oxazine 170 [As2Ox170], in series [1], the “fluorescent labeling of tetracysteine-tagged proteins” value is reported as “fails to fluorescently label” and the “binding to tetracysteine-tagged protein” value is recorded as “fails to bind; also recorded: lack of binding”. The intracellular staining result in the series with HeLa cells is on record as “intracellular staining; also recorded: highly fluorescent within cells”.

B1: TCLuc2: Firefly luciferase with optimized tetracysteine tag fused at the carboxy terminus, SEQ ID NO:3 (protein)
chain: GPLGSMEDAKNIKKGPAPFYPLEDGTAGEQLHKAMKRYALVPGTIAFTDAHIEVDITYAEYFEMSVRLAEAMKRYGLNTNHRIVVCSENSLQFFMPVLGALFIGVAVAPANDIYNERELLNSMGISQPTVVFVSKKGLQKILNVQKKLPIIQKIIIMDSKTDYQGFQSMYTFVTSHLPPGFNEYDFVPESFDRDKTIALIMNSSGSTGLPKGVALPHRTACVRFSHARDPIFGNQIIPDTAILSVVPFHHGFGMFTTLGYLICGFRVVLMYRFEEELFLRSLQDYKIQSALLVPTLFSFFAKSTLIDKYDLSNLHEIASGGAPLSKEVGEAVAKRFHLPGIRQGYGLTETTSAILITPEGDDKPGAVGKVVPFFEAKVVDLDTGKTLGVNQRGELCVRGPMIMSGYVNNPEATNALIDKDGWLHSGDIAYWDEDEHFFIVDRLKSLIKYKGYQVAPAELESILLQHPNIFDAGVAGLPDDDAGELPAAVVVLEHGKTMTEKEIVDYVASQVTTAKKLRGGVVFVDEVPKGLTGKLDARKIREILIKAKKGGKIAVFLNCCPGCCMEP
As to B1, in series [2], the BRET is listed as roughly 50% and the “efficiency of BRET (apparent)” value is “about 50%”.

B2: TCLuc5: N-terminal TC-tagged Δ2-luciferase, truncated, SEQ ID NO:6 (protein)
chain: GPLGSFLNCCPGCCDAKNIKKGPAPFYPLEDGTAGEQLHKAMKRYALVPGTIAFTDAHIEVDITYAEYFEMSVRLAEAMKRYGLNTNHRIVVCSENSLQFFMPVLGALFIGVAVAPANDIYNERELLNSMGISQPTVVFVSKKGLQKILNVQKKLPIIQKIIIMDSKTDYQGFQSMYTFVTSHLPPGFNEYDFVPESFDRDKTIALIMNSSGSTGLPKGVALPHRTACVRFSHARDPIFGNQIIPDTAILSVVPFHHGFGMFTTLGYLICGFRVVLMYRFEEELFLRSLQDYKIQSALLVPTLFSFFAKSTLIDKYDLSNLHEIASGGAPLSKEVGEAVAKRFHLPGIRQGYGLTETTSAILITPEGDDKPGAVGKVVPFFEAKVVDLDTGKTLGVNQRGELCVRGPMIMSGYVNNPEATNALIDKDGWLHSGDIAYWDEDEHFFIVDRLKSLIKYKGYQVAPAELESILLQHPNIFDAGVAGLPDDDAGELPAAVVVLEHGKTMTEKEIVDYVASQVTTAKKLRGGVVFVDEVPKGLTGKLDARKIREILIKAKKGGKIAV
As to B2, in series [2], the BRET result is “inactive” and the “efficiency of BRET (apparent)” value was “complete loss of luciferase activity”.

B3: TCLuc3: N-terminal TC-tagged luciferase with flexible (Gly-Ser)3 repeat spacer, SEQ ID NO:4 (protein)
chain: GPLGSFLNCCPGCCMEPGSGSGSGSMEDAKNIKKGPAPFYPLEDGTAGEQLHKAMKRYALVPGTIAFTDAHIEVDITYAEYFEMSVRLAEAMKRYGLNTNHRIVVCSENSLQFFMPVLGALFIGVAVAPANDIYNERELLNSMGISQPTVVFVSKKGLQKILNVQKKLPIIQKIIIMDSKTDYQGFQSMYTFVTSHLPPGFNEYDFVPESFDRDKTIALIMNSSGSTGLPKGVALPHRTACVRFSHARDPIFGNQIIPDTAILSVVPFHHGFGMFTTLGYLICGFRVVLMYRFEEELFLRSLQDYKIQSALLVPTLFSFFAKSTLIDKYDLSNLHEIASGGAPLSKEVGEAVAKRFHLPGIRQGYGLTETTSAILITPEGDDKPGAVGKVVPFFEAKVVDLDTGKTLGVNQRGELCVRGPMIMSGYVNNPEATNALIDKDGWLHSGDIAYWDEDEHFFIVDRLKSLIKYKGYQVAPAELESILLQHPNIFDAGVAGLPDDDAGELPAAVVVLEHGKTMTEKEIVDYVASQVTTAKKLRGGVVFVDEVPKGLTGKLDARKIREILIKAKKGGKIAV
As for B3, in series [2], the BRET was roughly 50% and the “efficiency of BRET (apparent)” value is “about 50%”.

B4: TCLuc1: Firefly luciferase with optimized tetracysteine tag fused at the amino terminus, SEQ ID NO:2 (protein)
chain: GPLGSFLNCCPGCCMEPGSMEDAKNIKKGPAPFYPLEDGTAGEQLHKAMKRYALVPGTIAFTDAHIEVDITYAEYFEMSVRLAEAMKRYGLNTNHRIVVCSENSLQFFMPVLGALFIGVAVAPANDIYNERELLNSMGISQPTVVFVSKKGLQKILNVQKKLPIIQKIIIMDSKTDYQGFQSMYTFVTSHLPPGFNEYDFVPESFDRDKTIALIMNSSGSTGLPKGVALPHRTACVRFSHARDPIFGNQIIPDTAILSVVPFHHGFGMFTTLGYLICGFRVVLMYRFEEELFLRSLQDYKIQSALLVPTLFSFFAKSTLIDKYDLSNLHEIASGGAPLSKEVGEAVAKRFHLPGIRQGYGLTETTSAILITPEGDDKPGAVGKVVPFFEAKVVDLDTGKTLGVNQRGELCVRGPMIMSGYVNNPEATNALIDKDGWLHSGDIAYWDEDEHFFIVDRLKSLIKYKGYQVAPAELESILLQHPNIFDAGVAGLPDDDAGELPAAVVVLEHGKTMTEKEIVDYVASQVTTAKKLRGGVVFVDEVPKGLTGKLDARKIREILIKAKKGGKIAV
As to B4, in series [2], the BRET is given as roughly 80% and the “efficiency of BRET (apparent)” value was “about 80%”.

B5: TCLuc4: N-terminal TC-tagged luciferase with truncated amino acids between tag and luciferase, SEQ ID NO:5 (protein)
chain: GPLGSFLNCCPGCCMEDAKNIKKGPAPFYPLEDGTAGEQLHKAMKRYALVPGTIAFTDAHIEVDITYAEYFEMSVRLAEAMKRYGLNTNHRIVVCSENSLQFFMPVLGALFIGVAVAPANDIYNERELLNSMGISQPTVVFVSKKGLQKILNVQKKLPIIQKIIIMDSKTDYQGFQSMYTFVTSHLPPGFNEYDFVPESFDRDKTIALIMNSSGSTGLPKGVALPHRTACVRFSHARDPIFGNQIIPDTAILSVVPFHHGFGMFTTLGYLICGFRVVLMYRFEEELFLRSLQDYKIQSALLVPTLFSFFAKSTLIDKYDLSNLHEIASGGAPLSKEVGEAVAKRFHLPGIRQGYGLTETTSAILITPEGDDKPGAVGKVVPFFEAKVVDLDTGKTLGVNQRGELCVRGPMIMSGYVNNPEATNALIDKDGWLHSGDIAYWDEDEHFFIVDRLKSLIKYKGYQVAPAELESILLQHPNIFDAGVAGLPDDDAGELPAAVVVLEHGKTMTEKEIVDYVASQVTTAKKLRGGVVFVDEVPKGLTGKLDARKIREILIKAKKGGKIAV
With B5, in series [2], the BRET result was “quenches” and the “efficiency of BRET (apparent)” value is given as “quenching of luciferase emission”.
